# Results published in patent publication US11987835B2, “Amino acid-sensing diguanylate cyclase and methods of use” (priority 2019, dated 2024).
# Experiments:
# [1] = system: Aer01 SpdE tandem PAS/dCache region (residues 37-287); test: Thermofluor (thermal shift) assay, Aer01 SpdE; format: binding, Aeromonas veronii; conditions: 10 mM pure amino acid; for thermal shift (ΔTm) in words: replicate ΔTm data
# Method: (§1) Thermofluor Assay. The periplasmic portion of SpdE was cloned, expressed and purified in E. coli. Thermofluor assays were performed using a Thermo Fisher Scientific StepOnePlus Real-time PCR instrument. Each 20 μL sample contained 0.1 mg/mL SpdE protein, 4× SYPRO Orange dye, 165 mM NaCl, 80 mM Tris pH 7.5 and 10 mM ligand (free amino acid dissolved in water). All samples were done in triplicate and repeated 2-3 times on different days. All reagents and steps were performed at 4° C. and placed in 96 well PCR plates. The PCR plate was slowly heated (˜0.03° C./sec) from 4° C. to 80° C. in the StepOnePlus instrument and fluorescent measurements were taken every 8.5 sec. The resultant thermal shift curves were analyzed to find the inflexion points, which correspond to the melting temperature (Tm) of the protein (with or without ligand). Inflexion points were determined in Microsoft Excel by calculating the half way point between the minimum fluorescence value prior to fluorescence increase and the maximum fluorescence value. The Tm difference between protein with and without ligand was calculated and plotted to determine the thermal stability shift as a proxy for ligand binding.
# In order to identify SpdE ligands, a thermal shift assay was conducted using 96-well Biolog Phenotype MicroArray plates as a high-throughput approach to screen compounds for ligand candidates. Using heterologously expressed and purified tandem PAS/dCache region of the protein (residues 37-287), ˜200 compounds were screened for ones that conferred a significant shift in protein thermal stability (see Table 4). […] For each curve, the melting temperature (Tm) was determined (brown circles), which corresponds to the midpoint of protein unfolding. The ΔTm (difference between test Tm and water control Tm) was calculated for each amino acid condition.
# [2] = system: SpdE diguanylate cyclase activity in Aer01; test: Intracellular cyclic di-GMP quantification; format: cell-based, Aeromonas veronii; conditions: WT Aer01, 1 mM amino acid, ~4 hrs, versus no ligand
# Method: Intracellular cyclic di-GMP quantification. […] Cultures were incubated, shaking, at 30° C. for 4 hours. Sample OD600 was measured and the entire volume pelleted. Sample pellets were resuspended in 300 μL ice cold extraction buffer (40/40/20 acetonitrile/methanol/water+0.1 N formic acid), iced for 30 min, then pelleted at maximum speed in tabletop microcentrifuge for 10 min. The supernatant was transferred to a new tube and stored at −80° until being vacuum concentrated until completely evaporated.
# Dried samples were resuspended in 100 μL Ultra Performance liquid chromatography-grade water and centrifuged for two minutes at 18,000×g (Eppendorf® Centrifuge 5242R). The debris-free supernatants were moved to LCMS Certified Clear Glass 12×32 mm screw neck max recovery vials (Waters®). Ten microliters of each sample were analyzed using LC-MS/MS on a Quattro Premier XE mass spectrometer coupled with an Acquity Ultra Performance LC system (Waters®). Cyclic di-GMP was detected with electrospray ionization using multiple reaction monitoring in negative-ion mode at m/z 689.16→344.31. […]
# In the case of SpdE, ligand binding to the PAS/Cache was hypothesized to regulate SpdE diguanylate cyclase activity, thereby altering intracellular levels of c-di-GMP. To test this, WT and ΔspdE Aer01 were incubated in the presence or absence of amino acid ligands for ˜4 hrs, then pelleted and lysed the cells to extract and quantify intracellular c-di-GMP.
# Aer01 [3] = format: cell-based, Aeromonas veronii
# Method: Exploration Assay. Overnight cultures (TSB) of Aer01 Strains were pelleted (1 mL), and resuspended in 1 ml sterile EM. […] The cultures were incubated, shaking, at 30° C. for 3 hours. An aliquot of each culture was passed through a 0.2 μM filter (Corning® Costar® Spin-X® centrifuge tube filters) to generate cell-free supernatant. To a sterile 96-well plate round-bottom plate, 80 μL of unfiltered culture was added to each well to include five replicates for each condition. To another sterile 96-well plate round-bottom plate, 80 μL of the cell-free supernatant was added to each well to replicate the layout of the culture plate. Using a Rainin Liquidator™ 96-channel benchtop pipettor, 5 μL of the cell-free supernatant was pulled up into 20 μL Rainin pipette tips. These tips then were lowered down into the wells of the culture plate so the tips were submerged to half the depth of the culture volume in the wells. This set-up was incubated at room temperature for 30 min, during which time the cells in the culture can swim up into the supernatant in the pipette tips. After incubation, the contents of the tips were ejected into the wells of a sterile 96-well plate (Corning, flat-bottom, #3595) to which 195 μL of sterile TSB medium was added to each well. This plate was immediately placed in a FLUOstar Omega microplate reader (BMG Labtech, Offenburg, Germany) and growth curves monitored by measuring absorbance (600 nm) every 10 min for 12-16 hrs, with 30° C. incubation and constant shaking. The growth curves were plotted and the times at which the absorbance passed 0.5 was determined for each plot. The time difference between a particular condition and a reference condition (as indicated in FIG. 5C) represents the “exploration response” of Aer01 in that condition.
# An “exploration assay” was used to measure population-level motility. For this assay Aer01 was incubated in the presence/absence of amino acid ligand (1 mM) for˜4 hrs, then the culture was added to the wells of a 96-well plate and pipette tips filled with the cell-free supernatant of the same cultures was lowered into the wells (FIG. 13). During a 30 min incubation period the Aer01 cells in the wells swam up into the pipette tips. […] To quantify the number of cells in the pipette tips after the 30 min exploration time, the contents of the pipette tips were ejected into the wells of a 96-well plate containing rich media and growth curves were monitored. […] This time difference between conditions, “exploration response,” was calculated to compare across many strains and conditions (FIG. 12C).
# Aer01 [4] = format: cell-based, Aeromonas veronii; remark: listed apart in the source
# Method: Live imaging and quantification of Aer01 motility. […] EM containing proline or valine (pH adjusted to 7.8 with HCl/NaOH) was added to the wells to generate the desired final concentrations of amino acid (0, 1 nM, 10 nM, 100 nM, 1 μM, or 1 mM) and cell densities of OD 0.1, each performed in triplicate. The tray was covered by parafilm and incubated at 30° C. for 5 hours. Cells were imaged between hour 5-6. Prior to imaging, bacterial samples were moved to a temperature-controlled box housing the microscope, heated to 30° C. 2 ul of bacteria from treatments were applied to a well slide (MP Biomedicals 10-well multitest slides #096041805), covered with a coverslip, and imaged immediately. Videos of bacteria were captured using a Nikon Eclipse Ti inverted microscope on the GFP channel using 20× magnification at 39 frames per second. Videos of treated bacteria were analyzed with particle tracking software (Parthasarathy, Nature Methods 9:724-236, 2012) using these settings: “objects” were identified using bpfilter 3, nsize 7, and gradobjsize 0. A standard threshold of 3.99-6 was applied, depending on the degree of background. Motile bacteria were defined as objects tracked over at least 1 s (39 frames) with a standard deviation in position of pixels/frame of at least 1.
# To do this, Aer01 was incubated in medium+/−ligand (ranging between 0 and 1 mM) then wet-mounted and imaged on an inverted microscope.
# Aer01 [5] = format: cell-based, Aeromonas veronii; remark: listed apart in the source
# Method: For light-sheet microscope-based imaging and determination of cellular swim speeds, overnight cultures (TSB) of strains (dTomato-tagged Aer01 and dTomato-tagged ΔspdE) were washed twice with sterile EM, as above. […] FC-EM was generated by collecting the flask EM of GF 5 or 6 dpf zebrafish larvae, filter-sterilizing and storing at 4° C. A glass cuvette was filled with culture and imaged on a custom-built light sheet fluorescence microscope, as previously described (Taormina et al., Biol. Bull. 223:7-20, 2012). The light sheet optically sections bulk samples in the center of the cuvette, so as not to constrain the motility of the imaged bacteria by surfaces. Movies in a single optical plane were captured for a duration of 20 seconds (frame rate of 30 frames/sec) with excitation light provided by a 561 nm solid state laser (Coherent Sapphire 20 mW; all strains expressed dTomato fluorescent protein). […] As above, particle tracking software, which uses a radial-symmetry-based algorithm, was used to analyze images (Parthasarathy, Nature Methods 9:724-726, 2012). The following parameters were used: bpfiltsize=7, nsize=7, gradobjsize=7, 1/nhood=true. […]
# Therefore, the cells were next imaged in a cuvette on a light sheet microscope where they would be recorded within a three-dimensional space and not impeded by surfaces. […]
# Aer01 [6] = test: Biofilm assay (crystal violet); format: cell-based, Aeromonas veronii; conditions: WT Aer01, 1 mM ligand, 48 hrs
# Method: Biofilm Assay. […] To the wells of a sterile 96-well plate (Corning, flat-bottom, #3595), 150 μL of each resuspended culture was added, in triplicate. A blank control well was added for each condition using the appropriate uninoculated media. This plate was incubated at 30° C., stationary, for 48 hours. After incubation, the biofilms were quantified using a standard crystal violet biofilm staining procedure. […] Briefly, the supernatant was removed from each well, then the wells gently rinsed three times with 150 μL sterile EM. Then, 150 μL 0.1% crystal violet was added to each well and the plate was incubated at room temperature for 10 minutes, followed by five rinses with 150 μL sterile EM. To destain, 150 μL 95% ethanol was added to each well and the plate was incubated at room temperature for 10 minutes. Each well was mixed well and the contents transferred to a clean 96-well plate and the absorbance (570 nm) was read on a FLUOstar Omega microplate reader (BMG Labtech, Offenburg, Germany).
# [7] = system: Aer01 colonization of larval zebrafish gut; test: Bacterial competitions in vivo (competitive index); conditions: GF zebrafish
# Method: Bacterial competitions in vivo. For in vivo bacterial competitions, strains (purified evolved isolates, or Aer01 genetic variants) were grown overnight in TSB from freezer stocks. 1 ml of the overnight cultures were pelleted (8,700 rcf, 2 min), then resuspended in 1 ml sterile EM. Competing strains were mixed, then added to flasks of 4 dpf GF (or CV fish) WT fish at ˜10^6 CFU/ml. For all competitions, sfGFP-tagged Aer01 was used as the “reference” strain. […] At 7 dpf, fish intestines were dissected as described above, and each intestine transferred into a 1.6 ml tube containing 500 μl sterile EM and ˜100 μl bullet beads, then bullet blended as described above. Homogenized samples were diluted appropriately in sterile EM, spread plated on TSA plates, incubated at 30° C. for 1-2 days, and the colonies counted. Strains were differentiated by fluorescence microscopy. Competitive index (CI) was calculated by dividing the strain ratio (test strain divided by reference strain) in the gut at the end of the competition by the strain ratio in the inoculum ((test/reference)gut/(test/reference)inoculum) (FIG. 1). The limit of detection is 5 CFU/gut; for samples were one strain was below the limit of detection, the abundance was set to 5 CFU in order to calculate a CI; this was the case for few of the samples.
# To test whether WT motility, and therefore immigration into the host, could be increased with addition of ligands, competitions were performed as previously described, this time supplementing the inoculum and flask medium with SpdE ligand.
# [8] = Thermofluor assay with Aer01 SpdE single residue variants; format: binding, Aeromonas veronii; conditions: single residue change versus wild-type Aer01 SpdE PAS/dCache
# Method: as §1, with “binding. […]” for “binding.”
# [9] = SpdE-NarQ chimeric sensor β-galactosidase reporter; format: cell-based, Escherichia coli; conditions: expected from sensitivity of SpdE-dependent responses
# Description: SpdE tandem PAS/dCache is a sensitive and specific sensor of particular amino acids. This domain is utilized for the design of novel biosensors of amino acid ligands by engineering chimeric reporter proteins fusing them to the signaling domain of an Escherichia coli protein, NarQ. NarQ is a nitrate/nitrite sensor which contains a C-terminal histidine kinase signaling domain. Here, the SpdE-NarQ hybrid protein includes the tandem PAS/dCache sensing domain (proximal and distal PAS/Cache domains) and both transmembrane domains of SpdE, and the HAMP and histidine kinase signaling domain of NarQ (FIG. 21A). When activated, the NarQ signaling domain auto-phosphorylates, then transfers the phosphoryl group to NarL, a transcriptional activator that binds nitrate-responsive promotors such as narG. In this system LacZ, a β-galactosidase, is under the control of the narG promoter, therefore activation of NarL results in expression of LacZ and increased β-galactosidase activity. The β-galactosidase activity is quantified via a colorimetric assay. Based on the sensitivity of SpdE-dependent responses in the assays disclosed herein, this hybrid protein is expected to detect ligand concentrations of 10 μM or less. […] Therefore, β-galactosidase activity will decrease with increasing ligand concentrations (e.g., FIG. 21B).
molecule,measurement,setting,value
O=C(O)[C@@H]1CCCN1 [proline],ΔTm (difference between test Tm and water control Tm),[1],~20 degrees
same,thermal shift (ΔTm) in words,[1],largest shifts
same,intracellular c-di-GMP,[2],significantly lower
same,motility response in exploration assay,"Aer01 [3]; WT Aer01, 100 nM proline",a response was measured
same,exploration response,"Aer01 [3]; WT Aer01, 1 mM ligand versus WT without ligand, mean",28.9 min
same,exploration response across proline concentrations,"Aer01 [3]; WT Aer01, between 100 nM and 1 mM proline",dose-dependent response trend
same,motility,Aer01 [4],little increase
same,number of motile cells,Aer01 [4],striking increase
same,cellular velocity (average of median values),"Aer01 [5]; WT Aer01, 1 mM proline (12.6 μm/sec without ligand)",24.5 μm/sec
same,cellular velocity change,"Aer01 [5]; ΔspdE, 1 mM proline",did not increase
same,biofilm formation,Aer01 [6],more robust biofilms in the absence of ligand
same,CI of ΔspdE versus WT,[7]; 100 nM and 10 nM proline,reduced CI but to a much lesser extent
same,median CI (competitive index) of ΔspdE versus WT,[7]; ligand supplemented into inoculum and flask medium (1 mM proline),2
CC[C@H](C)[C@H](N)C(=O)O [isoleucine],thermal shift (ΔTm) in words,[1],largest shifts
CSCC[C@H](N)C(=O)O [methionine],thermal shift (ΔTm) in words,[1],smaller degree
"NCC(=O)O [Glycine, glycine]",thermal shift (ΔTm) in words,[1],negative amino acid control
same,intracellular c-di-GMP,[2],no change
C[C@@H](O)[C@H](N)C(=O)O [threonine],thermal shift (ΔTm) in words,[1],smaller degree
CC(C)C[C@H](N)C(=O)O [leucine],thermal shift (ΔTm) in words,[1],smaller degree
C[C@H](N)C(=O)O [alanine],thermal shift (ΔTm) in words,[1],smaller degree
"W140/146A: Aer01 SpdE PAS/dCache variant, single residue change in the distal PAS/Cache (protein, listed as Aeromonas veronii) MSPAKPKNTWSLITRMRLGFLLLFIPVLLLGSIYYLHMERTLRHEQQQYLIARNTQYFHTLIEPYLATLKRQFTLIYQQVNYRDFSGPEIRNGERYLQQWQAYHKVMELDYVYVGTEHRKMLIHPSWQADEKFDPRTRPAYLLAASHPGQIVWTDPYYDYTLGTLTMALARVIKDPDGKRVGVLSLDTQLTPLASWLNSRHAQSHHLGNGYQLLLNHDGLVLAHPDRERVFKPLAHPDWLARMQQPQGFFLDDASGLMVSYYRIPEQRWILLSVEPTASMQQVIDSVSINVQLMIAVACFFYLLLALLWARYFRRMLGEITLLIRTSRSGGTAYHGSRMLELAKVYEEMDAASQDFAQIRQQANQDKLTGLYNRRFFDECLQKQLNSGAPFGVVMFDLDDFKRVNDTHGHQAGDVVLKRVSKLGMNLFHEWGWFCRYGGEELVLIFRYGEEQPMLPSLLEAFRLGVEQLEWREPDLTITISGGVAFSRSGLSAKELVELADKGVYQAKREGKNRICFPLRHTPHQSAEEGVPAFGETQQQTNEG",ligand binding (thermal shift),[8],reduction in ligand binding
"Y157/163A: Aer01 SpdE PAS/dCache variant, single residue change in the distal PAS/Cache (protein, listed as Aeromonas veronii) MSPAKPKNTWSLITRMRLGFLLLFIPVLLLGSIYYLHMERTLRHEQQQYLIARNTQYFHTLIEPYLATLKRQFTLIYQQVNYRDFSGPEIRNGERYLQQWQAYHKVMELDYVYVGTEHRKMLIHPSWQADEKFDPRTRPWYLLAASHPGQIVWTDPAYDYTLGTLTMALARVIKDPDGKRVGVLSLDTQLTPLASWLNSRHAQSHHLGNGYQLLLNHDGLVLAHPDRERVFKPLAHPDWLARMQQPQGFFLDDASGLMVSYYRIPEQRWILLSVEPTASMQQVIDSVSINVQLMIAVACFFYLLLALLWARYFRRMLGEITLLIRTSRSGGTAYHGSRMLELAKVYEEMDAASQDFAQIRQQANQDKLTGLYNRRFFDECLQKQLNSGAPFGVVMFDLDDFKRVNDTHGHQAGDVVLKRVSKLGMNLFHEWGWFCRYGGEELVLIFRYGEEQPMLPSLLEAFRLGVEQLEWREPDLTITISGGVAFSRSGLSAKELVELADKGVYQAKREGKNRICFPLRHTPHQSAEEGVPAFGETQQQTNEG",ligand binding (thermal shift),[8],reduction in ligand binding
"SpdE-NarQ hybrid protein: SpdE tandem PAS/dCache and transmembrane domains fused to HAMP and histidine kinase signaling domain of E. coli NarQ (protein, SpdE-NarQ fusion protein) MSPAKPKNTWSLITRMRLGFLLLFIPVLLLGSIYYLHMERTLRHEQQQYLIARNTQYFHTLIEPYLATLKRQFTLIYQQVNYRDFSGPEIRNGERYLQQWQAYHKVMELDYVYVGTEHRKMLIHPSWQADEKFDPRTRPWYLLAASHPGQIVWTDPYYDYTLGTLTMALARVIKDPDGKRVGVLSLDTQLTPLASWLNSRHAQSHHLGNGYQLLLNHDGLVLAHPDRERVFKPLAHPDWLARMQQPQGFFLDDASGLMVSYYRIPEQRWILLSVEPTASMQQVIDSVSINVQLMIAVACFFYLLLALLWLNQLVTASQRIEHGQFDSPPLDTNLPNELGLLAKTFNQMSSELHKLYRSLEASVEEKTRDLHEAKRRLEVLYQCSQALNTSQIDVHCFRHILQIVRDNEAAEYLELNVGENWRISEGQPNPELPMQILPVTMQETVYGELHWQNSHVSSSEPLLNSVSSMLGRGLYFNQAQKHFQQLLLMEERATIARELHDSLAQVLSYLRIQLTLLKRSIPEDNATAQSIMADFSQALNDAYRQLRELLTTFRLTLQQADLPSALREMLDTLQNQTSAKLTLDCRLPTLALDAQMQVHLLQIIREAVLNAMKHANASEIAVSCVTAPDGNHTVYIRDNGIGIGEPKEPEGHYGLNIMRERAERLGGTLTFSQPSGGGTLVSISFRSAEGEESQLM",detectable ligand concentration,[9],≤ 10 µM
